We go through two compounds from ChEMBL document CHEMBL1145666, “Geriatrics photo quiz. Thoracic aortic aneurysm” (1983).

Converted amounts (≈) assume the structure as drawn.

Common to all, as to assay type: functional
In assay [1] the test system is P388. Kind of assay: Antitumor activity against mouse P388 cells. The note with it: read-out: ED50 (the source's name).
The test system of assay [2] is P388. Kind of assay: In vivo antitumor activity against mouse P388 cells at 40 ug/kg relative to control.
Assay [3] has as its system P388. The experiment in a line: In vivo antitumor activity against mouse P388 cells at 20 ug/kg relative to control.

Take `C=C(C)[C@]12C[C@@H](C)[C@@]34OC5(CCCCCCC[C@H](C)[C@H]6[C@H](C)[C@H](OC(=O)c7ccccc7)[C@@](O)([C@H](O)[C@@]7(CO)O[C@H]7[C@H]3[C@H]1O5)[C@@H]64)O2` [PIMELEA FACTOR P2]: the EC50 in the assay on P388 [1] was found to be 0.79 ng/mL (≈ 1.24 nM). For the same compound, the T/C in the assay with P388 [2] is given as 130; in the assay on P388 [3], 132.
As for `C=C(C)[C@]12C[C@@H](C)[C@@]34O[C@](CCCCCCCCC)(O[C@@H]1[C@@H]3[C@@H]1O[C@]1(CO)[C@@H](O)[C@]1(O)C(=O)C(C)=C[C@H]14)O2` [SIMPLEXIN], the EC50 with P388 [1] came out at 5 ng/mL (≈ 9.39 nM).
